According to PMC5814047, “Peptidic inhibitors of insulin-degrading enzyme with potential for dermatological applications discovered via phage display” (PLoS ONE, 2018):
“And” between values parts separate entries of the source, which are not always exact repeats. Equal values may be shown once. Bridge positions count the residues as written; N and C are the ends. Ends that are not written are not given here. Peptide text beside a SMILES is read from it.

Key:
IDE [1] = target: T1, IDE (Homo sapiens, UniProt P14735); test: biochemical; settings: for IC50 <10 uM?: initial test at 10 uM using insulin (100 nM); for remaining activity at 0.016 µM: Cmpd 0.016 uM; for remaining activity at 0.08 µM: Cmpd 0.08 uM; for remaining activity at 0.4 µM: Cmpd 0.4 uM; for remaining activity at 2 µM: Cmpd 2 uM; for remaining activity at 10 µM: Cmpd 10 uM
T1 construct: made in house; host or cells: bacteria
T1 sequence (P14735 1-1019): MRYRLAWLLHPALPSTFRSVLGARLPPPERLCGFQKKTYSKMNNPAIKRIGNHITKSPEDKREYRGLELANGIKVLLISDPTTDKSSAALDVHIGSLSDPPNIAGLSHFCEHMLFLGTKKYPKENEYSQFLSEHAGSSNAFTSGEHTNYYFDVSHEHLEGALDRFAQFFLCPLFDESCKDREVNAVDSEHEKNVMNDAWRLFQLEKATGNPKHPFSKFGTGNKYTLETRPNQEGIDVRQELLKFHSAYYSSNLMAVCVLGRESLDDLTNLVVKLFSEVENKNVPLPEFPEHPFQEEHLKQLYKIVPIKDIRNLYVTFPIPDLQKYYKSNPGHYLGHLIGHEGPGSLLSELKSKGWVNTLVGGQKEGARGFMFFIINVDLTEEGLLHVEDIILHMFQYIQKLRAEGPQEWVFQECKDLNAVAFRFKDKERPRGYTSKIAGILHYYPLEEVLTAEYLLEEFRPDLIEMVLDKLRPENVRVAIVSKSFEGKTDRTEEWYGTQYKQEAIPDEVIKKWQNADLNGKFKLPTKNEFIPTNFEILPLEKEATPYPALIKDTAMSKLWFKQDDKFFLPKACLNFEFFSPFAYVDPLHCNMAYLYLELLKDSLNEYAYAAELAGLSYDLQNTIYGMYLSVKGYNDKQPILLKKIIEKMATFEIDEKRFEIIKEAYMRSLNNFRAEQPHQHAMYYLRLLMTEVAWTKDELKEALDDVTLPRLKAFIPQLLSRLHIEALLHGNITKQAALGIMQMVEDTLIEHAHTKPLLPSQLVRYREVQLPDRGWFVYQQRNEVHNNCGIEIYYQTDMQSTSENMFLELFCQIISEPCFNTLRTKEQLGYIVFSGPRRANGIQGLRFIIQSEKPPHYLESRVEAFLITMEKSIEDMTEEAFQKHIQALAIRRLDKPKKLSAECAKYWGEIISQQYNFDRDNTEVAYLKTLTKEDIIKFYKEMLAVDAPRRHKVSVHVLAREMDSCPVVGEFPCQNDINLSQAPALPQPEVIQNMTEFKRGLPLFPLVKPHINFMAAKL
Summary of the method: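 Bacterially expressed recombinant human IDE (1 nM) in PBS with 0.05% BSA. Substrates: FRET1 (5 μM; fluorescence, ex 340/em 420 nm), fluoresceinated biotinylated amyloid β-protein (500 nM; fluorescence polarization, ex 488/em 525 nm), or recombinant human insulin (50 nM; ELISA).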

IDE [2] = target: T1, IDE; test: Vulnerability of peptides to degradation by IDE: 0 vs 4 h pre-incubation, then FRET1 assay; type: biochemical; settings: for Ki: Cheng-Prusoff from IC50, FRET1 KM 10 uM, substrate 5 uM; for remaining activity at 0.12207 µM / remaining activity at 0.488281 µM / remaining activity at 1.95312 µM / remaining activity at 7.8125 µM / remaining activity at 31.25 µM / remaining activity at 125 µM / remaining activity at 500 µM: 4 h, relative to DMSO-only controls, read-out: Percent Activity (normalized initial velocity of FRET1 hydrolysis); for remaining activity at 0.12207 µM: Cmpd 0.12207 uM; for remaining activity at 0.488281 µM: Cmpd 0.488281 uM; for remaining activity at 1.95312 µM: Cmpd 1.95312 uM; for remaining activity at 7.8125 µM: Cmpd 7.8125 uM; for remaining activity at 31.25 µM: Cmpd 31.25 uM; for remaining activity at 125 µM: Cmpd 125 uM; for remaining activity at 500 µM: Cmpd 500 uM; for IC50: FRET1 assay
Procedure: IDE activity was quantified by monitoring the degradation of Mca-[…](Dnp) (FRET1, 5 μM), fluoresceinated and biotinylated amyloid ß-protein (FAßB; 500 nM) or recombinant human insulin (50 nM) in PBS supplemented with 0.05% BSA. […] In vitro activity assays incorporated recombinant human IDE (1 nM) purified from bacteria. For quantitation of insulin degradation in primary murine skin fibroblasts, cells (1 x 10^5/well) were plated in 96-well plates and maintained in DMEM supplemented with 10% fetal bovine serum (FBS), 2mM glutamine, penicillin and streptomycin. After addition of insulin (10 nM or 100 nM), samples of conditioned medium were removed daily and quickly frozen, then insulin levels were quantified in parallel by ELISA according to manufacturer’s recommendations (Crystal Chem, Downers Grove, IL, USA). Assessment of the activity of P12-3A against a variety of matrix-metalloproteases was conducted using the Matrix Metalloproteinase (MMP) Inhibitor Profiling Kit, Fluorometric RED (Enzo Life Sciences, Inc., Farmingdale, NY, USA) according to manufacturer’s recommendations using the broad-spectrum MMP inhibitor, NNGH, as a positive control.

[3] = insulin ELISA assay, dose-response, Replicates 1-3, read-out: IC50s, individual replicates
[4] = insulin ELISA assay, dose-response, N=3, read-out: IC50s, Mean
[5] = substrate recombinant human insulin 50 nM, Ki from IC50 with the Cheng-Prusoff equation
[6] = 4-hr incubation, individual runs
[7] = 4-hr incubation, individual replicates, read-out: IC50s
[8] = 4-hr incubation, mean of 2 replicates, read-out: IC50s, Mean
[9] = insulin ELISA, Runs 1-3, read-out: Percent Activity (normalized source data)
[10] = 0-hr incubation (immediately after combining enzyme and peptide), individual runs, read-out: IC50s

Row | IC50 <10 uM? (IDE [1]) | IC50 (IDE [1]; [3]) | IC50 (IDE [1]; [4]) [µM] | Ki (IDE [1]; [5]) [µM] | Ki (IDE [2]; 4-hr incubation) [µM] | remaining activity at 0.12207 µM (IDE [2]; [6]) [%] | remaining activity at 0.488281 µM (IDE [2]; [6]) [%] | remaining activity at 1.95312 µM (IDE [2]; [6]) [%] | remaining activity at 7.8125 µM (IDE [2]; [6]) [%] | remaining activity at 31.25 µM (IDE [2]; [6]) [%] | remaining activity at 125 µM (IDE [2]; [6]) [%] | remaining activity at 500 µM (IDE [2]; [6]) [%] | IC50 (IDE [2]; [7]) | IC50 (IDE [2]; [8]) [µM] | remaining activity at 0.016 µM (IDE [1]; [9]) [%] | remaining activity at 0.08 µM (IDE [1]; [9]) [%] | remaining activity at 0.4 µM (IDE [1]; [9]) [%] | remaining activity at 2 µM (IDE [1]; [9]) [%] | remaining activity at 10 µM (IDE [1]; [9]) [%] | IC50 (IDE [2]; [10]) [µM] | Molecule | further results
1 | YES | 1.9 µM and 3.16 µM and 3.78 µM | 2.95 | 1.5 ± 0.3 | 259 | 89.9 | 96.1 | 86.6 | 80.4 | 84.9 | 75.6 | 30.5 | 402 µM and 377 µM | 389 | – | – | – | – | – | – | WSPISGKFFQRF [P12-4] | –
2 | YES | – | – | – | – | 106 | 99.5 | 95.9 | 104 | 70.9 | 8.98 | 1.55 | – | – | 66.3 | 72.2 | 62.9 | 64.4 | 37.6 | – | CC(C)C[C@H](NC(=O)[C@H](CO)NC(=O)[C@@H](N)CCC(N)=O)C(=O)N1CCC[C@H]1C(=O)N[C@@H](Cc1c[nH]c2ccccc12)C(=O)N[C@H]1CSSC[C@@H](C(=O)N[C@H](C(=O)N[C@H](C(=O)O)[C@@H](C)O)C(C)C)NC(=O)[C@H](Cc2c[nH]cn2)NC(=O)[C@@H]2CCCN2C(=O)[C@H](Cc2ccc(O)cc2)NC1=O [P12-3] (H-QSLPWCYPHCVT-OH; disulfide 6-10 (inferred)) | –
3 | YES | 1.58 µM and 1.47 µM and 1.72 µM | 1.59 | 0.8 ± 0.04 | 105 | 97.5 | 104 | 99 | 73.2 | 42.7 | 10 | 0.247 | 154 µM and 160 µM | 157 | – | – | – | – | – | – | VHWDFRQWWQPS [P12-1] | Ki (IDE [1]; as restated in the Discussion, read-out: Ki (insulin)): 0.8 µM
4 | YES | 3.22 µM and 1.93 µM and 2.38 µM | 2.51 | 1.3 ± 0.2 | 62.2 | 79.1 | 75 | 59.1 | 50.1 | 33.7 | 12.7 | 21.4 | 96.5 µM and 90.2 µM | 93.3 | – | – | – | – | – | 8.43 | VHWDFRQWWQPS-NH2 [P12-1A] | –
5 | YES | – | – | – | – | 101 | 96.2 | 95.5 | 93.1 | 87.4 | 7.45 | 0.698 | – | – | 90.2 | 84.4 | 76.5 | 62.5 | 47.7 | – | CC(C)C[C@H](NC(=O)[C@H](CO)NC(=O)[C@@H](N)CCC(N)=O)C(=O)N1CCC[C@H]1C(=O)N[C@@H](Cc1c[nH]c2ccccc12)C(=O)N[C@H]1CSSC[C@@H](C(=O)N[C@H](C(=O)N[C@H](C(N)=O)[C@@H](C)O)C(C)C)NC(=O)[C@H](Cc2c[nH]cn2)NC(=O)[C@@H]2CCCN2C(=O)[C@H](Cc2ccc(O)cc2)NC1=O [P12-3A] (H-QSLPWCYPHCVT-NH2; disulfide 6-10 (inferred)) | Hill slope (IDE [1]; dose-response of P12-3A against insulin degradation by IDE, Fig 3B): 0.91 ± 0.15; remaining activity at 50 µM (IDE [1]; insulin ELISA, Cmpd 50 uM, Runs 1-3, read-out: Percent Activity (normalized source data)): 28.6%; remaining activity at 0.0316228 µM (IDE [1]; resynthesized P12-3A 0.0316228 uM, individual replicates, read-out: Percent Activity (normalized source data)): 98.5%
6 | – | – | – | > 10 | 30.6 | 101 | 96.9 | 101 | 97 | 80.9 | 60.2 | 11.2 | 45.1 µM and 46.8 µM | 45.9 | – | – | – | – | – | 119 | QSLPWCYP-NH2 [P12-3B] | IC50 (IDE [1]; from initial test at 10 uM using insulin (100 nM), read-out: IC50 (summary of results, listed in Table 1)): > 10 µM; IC50 (IDE [2]; 0-hr incubation, mean of runs, read-out: IC50s, Mean): 59.2 µM
